Measured values: patent publication US10093627B2, “Tetrahydroquinoline derivatives and their use as Epac inhibitors” (Institut National de la Sante et de la Recherche Medicale …, priority 2012, dated 2018)

Tested on: Iso-induced ANF-Luc transcriptional activation
Test: ANF-Luc transcriptional activation (Firefly luciferase assay) in rat neonatal cardiomyocytes
Assay type: cell-based
Conditions: Iso 10 μM, 8 h; FIG. 4A
Description: ANF and NFAT promoters were fused to the Firefly luciferase gene (ANF-Luc) (NFAT-Luc) to detect ANF and NFAT by Firefly Luciferase assay (see Materiel and Methods).
Rat neonatal cardiomyocytes were cotransfected with ANF-Luc and Epac1 or empty vector pcDNA3 as control. One day after transfection, cells were pretreated or not with CE3F4 (20 μM) for 30 min and stimulated or not with Iso (10 μM) for 8 h. Cells were then assayed for Luciferase activity. B) Iso-induced NFAT-Luc Transcriptional Activation is Blocked by CE3F4: Neonatal cardiomyocytes were transfected with NFAT-Luc. One day later cells were pretreated or not with CE3F4 (20 μM) for 30 min and stimulated or not with Iso (10 μM) for 8 h. The day after, cells were assayed for Luciferase activity.
Results were normalized to control for each experiment, and were expressed as means±S.E.M of at 4 (FIG. 4A) or 5 (FIG. 4B) independent experiments performed in triplicates.
The rat ANF promoter fused to the Firefly luciferase reporter gene (ANF-Luc) by Dr K. Knowlton, Epac and Rap1 plasmid construct (Epac1^WT) by Drs J. L. Bos and J. de Gunzburg, respectively. The Firefly luciferase reporter plasmid driven by four NFAT consensus binding sites (NFAT-Luc) was purchased from Stratagene. […]
Cells were lysed, and luminescence was detected using the Luciferase Assay System (Promega) according to the manufacturer's instructions with Tecan Infinite.

Effect of agonist on ANF (ANF-Luc): increased ANF
SMILES: CC(C)NCC(O)c1ccc(O)c(O)c1 (stereo not shown) [Iso, Isoprenaline, reference compound]
